Data on 25 molecules can be found in patent US20110105509A1 (Wyeth, LLC, priority 2009, published 2011).

The assay deals with T1, CRTH2 (Homo sapiens, UniProt Q9Y5Y4).
T1 construct: expressed in transfected cells; host or cells: CHO cells
T1 sequence (Q9Y5Y4 1-395): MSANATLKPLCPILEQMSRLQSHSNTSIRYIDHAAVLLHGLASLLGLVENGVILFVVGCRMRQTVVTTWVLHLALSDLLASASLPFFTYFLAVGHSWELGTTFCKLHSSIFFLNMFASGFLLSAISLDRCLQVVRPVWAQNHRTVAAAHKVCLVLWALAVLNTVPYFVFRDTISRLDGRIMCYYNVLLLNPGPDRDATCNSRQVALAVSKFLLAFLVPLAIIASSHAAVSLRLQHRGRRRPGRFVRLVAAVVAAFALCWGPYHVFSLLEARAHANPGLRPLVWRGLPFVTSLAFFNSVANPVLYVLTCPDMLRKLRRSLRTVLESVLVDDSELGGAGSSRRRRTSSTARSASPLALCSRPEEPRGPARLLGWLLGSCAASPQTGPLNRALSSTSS
The assay is described as follows: FRET based competitive immunoassay (cAMP) in CRTH2 expressing CHO cells. It counts as cell-based. Conditions: CRTH2 expressing CHO cells incubated with forskolin and PGD2; Eu3+ cryptate-labeled anti-cAMP and d2-labeled cAMP. The protocol:
FRET Assay: To evaluate potency compounds were tested in a FRET based competitive immunoassay in which CRTH2 expressing CHO cells were incubated in the presence of forskolin and PGD2 along with Eu3+ cryptate-labeled anti-cAMP and d2-labeled cAMP.
In the case of `Cc1c(-c2nn(Cc3ccc(Cl)cc3)c(=O)c3ccccc23)c2cc(Cl)ccc2n1CC(=O)O` [Example 1, 2-(5-Chloro-3-(3-(4-chlorobenzyl)-4-oxo-3,4-dihydrophthalazin-1-yl)-2-methyl-1H-indol-1-yl)acetic acid], the IC50 amounted to 15 nM.

`Cc1c(-c2nn(Cc3ccc(Cl)c(F)c3)c(=O)c3ccccc23)c2cc(Cl)ccc2n1CC(=O)O` [Example 2, 2-(5-Chloro-3-(3-(4-chloro-3-fluorobenzyl)-4-oxo-3,4-dihydrophthalazin-1-yl)-2-methyl-1H-indol-1-yl)acetic acid] registered a 50% inhibitory concentration (IC50) of 18 nM. The IC50 values of the last two molecules are within 1.5-fold of each other.

Take `Cc1c(-c2nn(Cc3ccc(C(F)(F)F)c(F)c3)c(=O)c3ccccc23)c2cc(Cl)ccc2n1CC(=O)O` [Example 3, 2-(5-Chloro-3-(3-(3-fluoro-4-(trifluoromethyl)benzyl)-4-oxo-3,4-dihydrophthalazin-1-yl)-2-methyl-1H-indol-1-yl)acetic acid]: the IC50 was determined as 58 nM. Against the preceding molecule, the IC50 is about 3.2-fold higher.

Regarding `Cc1c(-c2nn(Cc3ccc(Cl)cc3)c(=O)c3ccccc23)c2cc(F)ccc2n1CC(=O)O` [Example 4, 2-(3-(3-(4-Chlorobenzyl)-4-oxo-3,4-dihydropthalazin-1-yl)-5-fluoro-2-methyl-1H-indol-1-yl)acetic acid], the 50% inhibitory concentration (IC50) is 9 nM.

As for `Cc1c(-c2nn(Cc3ccc(Cl)c(F)c3)c(=O)c3ccccc23)c2cc(F)ccc2n1CC(=O)O` [Example 5, 2-(3-(3-(4-Chloro-3-fluorobenzyl)-4-oxo-3,4-dihydrophthalazin-1-yl)-5-fluoro-2-methyl-1H-indol-1-yl)acetic acid], the IC50 is 10 nM.

On to `Cc1c(-c2nn(Cc3ccc(C(F)(F)F)c(F)c3)c(=O)c3ccccc23)c2cc(F)ccc2n1CC(=O)O` [Example 6, 2-(5-Fluoro-3-(3-(3-fluoro-4-(trifluoromethyl)benzyl)-4-oxo-3,4-dihydrophthalazin-1-yl)-2-methyl-1H-indol-1-yl)acetic acid], for which the 50% inhibitory concentration (IC50) is 23 nM.

`Cc1c(-c2nn(Cc3ccc(Cl)cc3Cl)c(=O)c3ccccc23)c2cc(F)ccc2n1CC(=O)O` [Example 7, 2-(3-(3-(2,4-dichlorobenzyl)-4-oxo-3,4-dihydrophthalazin-1-yl)-5-fluoro-2-methyl-1H-indol-1-yl)acetic acid] had an IC50 of 4 nM.

Regarding `Cc1c(-c2ccc(=O)n(Cc3ccc(Cl)c(F)c3)n2)c2cc(Cl)ccc2n1CC(=O)O` [Example 8, 2-(5-Chloro-3-(1-(4-chloro-3-fluorobenzyl)-6-oxo-1,6-dihydropyridazin-3-yl)-2-methyl-1H-indol-1-yl)acetic acid], the concentration for half-maximal inhibition (IC50) stood at 5 nM. The IC50 values of the last two molecules are within 1.5-fold of each other.

Molecule `Cc1c(-c2ccc(=O)n(Cc3ccc(Cl)cc3)n2)c2cc(Cl)ccc2n1CC(=O)O` [Example 9, 2-(5-Chloro-3-(1-(4-chlorobenzyl)-6-oxo-1,6-dihydropyridazin-3-yl)-2-methyl-1H-indol-1-yl)acetic acid] returned a half-inhibitory concentration (IC50) of 21 nM.

Molecule `Cc1c(-c2ccc(=O)n(Cc3ccccc3)n2)c2cc(Cl)cc(F)c2n1CC(=O)O` [Example 10, 2-(3-(1-Benzyl-6-oxo-1,6-dihydropyridazin-3-yl)-5-chloro-7-fluoro-2-methyl-1H-indol-1-yl)acetic acid] registered an IC50 of 106 nM.

`Cc1c(-c2nn(Cc3ccccc3)c(=O)c3ccccc23)c2cc(Cl)cc(F)c2n1CC(=O)O` [Example 11, 2-(3-(3-Benzyl-4-oxo-3,4-dihydrophthalazin-1-yl)-5-chloro-7-fluoro-2-methyl-1H-indol-1-yl)acetic acid] gave an IC50 of 39 nM.

Molecule `Cc1c(-c2ccc(=O)n(Cc3ccc(Cl)c(F)c3)n2)c2cc(F)ccc2n1CC(=O)O` [Example 12, 2-(3-(1-(4-chloro-3-fluorobenzyl)-6-oxo-1,6-dihydropyridazin-3-yl)-5-fluoro-2-methyl-1H-indol-1-yl)acetic acid] registered a concentration for half-maximal inhibition (IC50) of 6 nM.

For `Cc1c(-c2ccc(=O)n(Cc3ccc(Cl)cc3)n2)c2cc(F)ccc2n1CC(=O)O` [Example 13, 2-(3-(1-(4-Chlorobenzyl)-6-oxo-1,6-dihydropyridazin-3-yl)-5-fluoro-2-methyl-1H-indol-1-yl)acetic acid], the IC50 amounted to 5 nM. The IC50 values of the last two molecules are within 1.5-fold of each other.

Molecule `Cc1c(-c2nn(Cc3ccccc3)c(=O)c3ccccc23)c2cc(S(C)(=O)=O)cc(Cl)c2n1CC(=O)O` [Example 14, 2-(3-(3-Benzyl-4-oxo-3,4-dihydrophthalazin-1-yl)-7-chloro-2-methyl-5-(methylsulfonyl)-1H-indol-1-yl)acetic acid] showed a half-maximal inhibitory concentration (IC50) of 169 nM.

In turn, `Cc1c(-c2nn(Cc3ccccc3)c(=O)c3ccccc23)c2cc(S(C)(=O)=O)cc(F)c2n1CC(=O)O` [Example 15, 2-(3-(3-Benzyl-4-oxo-3,4-dihydrophthalazin-1-yl)-7-fluoro-2-methyl-5-(methylsulfonyl)-1H-indol-1-yl)acetic acid] displayed a concentration for half-maximal inhibition (IC50) of 214 nM.

As to `COc1ccc2c(c1)c(-c1nn(Cc3ccccc3)c(=O)c3ccccc13)c(C)n2CC(=O)O` [Example 16, 2-(3-(3-Benzyl-4-oxo-3,4-dihydrophthalazin-1-yl)-5-methoxy-2-methyl-1H-indol-1-yl)acetic acid], the 50% inhibitory concentration (IC50) came out at 31 nM.

Regarding `Cc1c(-c2ccc(=O)n(Cc3ccccc3)n2)c2cc(S(C)(=O)=O)cc(F)c2n1CC(=O)O` [Example 17, 2-(3-(1-Benzyl-6-oxo-1,6-dihydropyridazin-3-yl)-7-fluoro-2-methyl-5-(methylsulfonyl)-1H-indol-1-yl)acetic acid], the concentration for half-maximal inhibition (IC50) came out at 2780 nM.

The molecule `COc1ccc2c(c1)c(-c1ccc(=O)n(Cc3ccccc3)n1)c(C)n2CC(=O)O` [Example 18, 2-(3-(1-Benzyl-6-oxo-1,6-dihydropyridazin-3-yl)-5-methoxy-2-methyl-1H-indol-1-yl)acetic acid] yielded an IC50 of 192 nM.

`COc1ccc2c(c1)c(-c1nn(C(C)C)c(=O)c3ccccc13)c(C)n2CC(=O)O` [Example 19, 2-(3-(3-Isopropyl-4-oxo-3,4-dihydrophthalazin-1-yl)-5-methoxy-2-methyl-1H-indol-1-yl)acetic acid] registered a 50% inhibitory concentration (IC50) of 109 nM.

The molecule `Cc1c(Cc2ccc(=O)n(Cc3ccc(F)cc3F)c2)c2cc(F)ccc2n1CC(=O)O` [Example 20, 2-(3-((1-(2,4-Difluorobenzyl)-6-oxo-1,6-dihydropyridin-3-yl)methyl)-5-fluoro-2-methyl-1H-indol-1-yl)acetic acid] returned an IC50 of 5 nM.

With `Cc1c(Cc2ccc(=O)n(Cc3ccc(F)cc3F)c2)c2ccccc2n1CC(=O)O` [Example 21, 2-(3-((1-(2,4-Difluorobenzyl)-6-oxo-1,6-dihydropyridin-3-yl)methyl)-2-methyl-1H-indol-1-yl)acetic acid], the IC50 came to 18 nM. This IC50 is about 3.6-fold higher than that of the molecule before.

Regarding `Cc1c(Cc2ccc(=O)n(C(C)C)c2)c2ccccc2n1CC(=O)O` [Example 22], the IC50 is 765 nM.

In turn, `Cc1c(Cc2ccc(=O)n(Cc3cc(F)c(F)cc3F)c2)c2cc(F)ccc2n1CC(=O)O` [Example 23, 2-(5-Fluoro-2-methyl-3-((6-oxo-1-(2,4,5-trifluorobenzyl)-1,6-dihydro-pyridin-3-yl)methyl)-1H-indol-1-yl)acetic acid] came in with an IC50 of 17 nM.

`Cc1c(Cc2ccc(=O)n(Cc3cc(F)c(F)cc3F)c2)c2ccccc2n1CC(=O)O` [Example 24]: the IC50 is 28 nM.

`Cc1c(Cc2ccc(=O)n(Cc3cc(F)ccc3F)c2)c2ccccc2n1CC(=O)O` [Example 25, 2-(3-((1-(2,5-Difluorobenzyl)-6-oxo-1,6-dihydropyridin-3-yl)methyl)-2-methyl-1H-indol-1-yl)acetic acid]: the concentration for half-maximal inhibition (IC50) came out at 7 nM.
